# Values of other authors, collected in publication PMC9395504 (Investigational New Drugs, 2022).
# Columns and labels:
# [1] = system: TP53-WT patient-derived melanoma xenografts; conditions: 50 mg/kg, alone or combined with dabrafenib and trametinib; cited from earlier work
# [2] = system: serum MIC-1 protein; conditions: single-agent AMG 232, cited from earlier work
smiles,measurement,setting,value
CC(C)[C@@H](CS(=O)(=O)C(C)C)N1C(=O)[C@@](C)(CC(=O)O)C[C@H](c2cccc(Cl)c2)[C@H]1c1ccc(Cl)cc1 [AMG 232],antitumor activity,[1],demonstrated antitumor activity
same,biologically effective AMG 232 dose in humans,[2]; daily,at least 240 mg
same,daily dose at which significant increases in serum MIC-1 protein were seen,[2],higher than 240 mg
